{
  "source": "paper PMC7736581",
  "about": "“Activation of the IRE1 RNase through remodeling of the kinase front pocket by ATP-competitive ligands” (Nature Communications, 2020)",
  "assay_in_all_cases": "biochemical",
  "design_in_all_cases": "Invitrogen kinase panel: Z'Lyte activity (ATP at Km) or LanthaScreen competitive ATP-site binding, percent inhibition",
  "key": {"SPHK1": {"biological_target": "SPHK1 (Homo sapiens, UniProt Q9NYA1)"}, "PI3K-A": {"biological_target": "T1, PI3K-A (Homo sapiens, UniProt P42336)", "T1 construct": "gene PIK3CA"}, "ERN1": {"biological_target": "ERN1 (Homo sapiens, UniProt O75460)"}, "LRRK2": {"biological_target": "LRRK2 (Homo sapiens, UniProt Q5S007)", "sequence (Q5S007 whole entry)": "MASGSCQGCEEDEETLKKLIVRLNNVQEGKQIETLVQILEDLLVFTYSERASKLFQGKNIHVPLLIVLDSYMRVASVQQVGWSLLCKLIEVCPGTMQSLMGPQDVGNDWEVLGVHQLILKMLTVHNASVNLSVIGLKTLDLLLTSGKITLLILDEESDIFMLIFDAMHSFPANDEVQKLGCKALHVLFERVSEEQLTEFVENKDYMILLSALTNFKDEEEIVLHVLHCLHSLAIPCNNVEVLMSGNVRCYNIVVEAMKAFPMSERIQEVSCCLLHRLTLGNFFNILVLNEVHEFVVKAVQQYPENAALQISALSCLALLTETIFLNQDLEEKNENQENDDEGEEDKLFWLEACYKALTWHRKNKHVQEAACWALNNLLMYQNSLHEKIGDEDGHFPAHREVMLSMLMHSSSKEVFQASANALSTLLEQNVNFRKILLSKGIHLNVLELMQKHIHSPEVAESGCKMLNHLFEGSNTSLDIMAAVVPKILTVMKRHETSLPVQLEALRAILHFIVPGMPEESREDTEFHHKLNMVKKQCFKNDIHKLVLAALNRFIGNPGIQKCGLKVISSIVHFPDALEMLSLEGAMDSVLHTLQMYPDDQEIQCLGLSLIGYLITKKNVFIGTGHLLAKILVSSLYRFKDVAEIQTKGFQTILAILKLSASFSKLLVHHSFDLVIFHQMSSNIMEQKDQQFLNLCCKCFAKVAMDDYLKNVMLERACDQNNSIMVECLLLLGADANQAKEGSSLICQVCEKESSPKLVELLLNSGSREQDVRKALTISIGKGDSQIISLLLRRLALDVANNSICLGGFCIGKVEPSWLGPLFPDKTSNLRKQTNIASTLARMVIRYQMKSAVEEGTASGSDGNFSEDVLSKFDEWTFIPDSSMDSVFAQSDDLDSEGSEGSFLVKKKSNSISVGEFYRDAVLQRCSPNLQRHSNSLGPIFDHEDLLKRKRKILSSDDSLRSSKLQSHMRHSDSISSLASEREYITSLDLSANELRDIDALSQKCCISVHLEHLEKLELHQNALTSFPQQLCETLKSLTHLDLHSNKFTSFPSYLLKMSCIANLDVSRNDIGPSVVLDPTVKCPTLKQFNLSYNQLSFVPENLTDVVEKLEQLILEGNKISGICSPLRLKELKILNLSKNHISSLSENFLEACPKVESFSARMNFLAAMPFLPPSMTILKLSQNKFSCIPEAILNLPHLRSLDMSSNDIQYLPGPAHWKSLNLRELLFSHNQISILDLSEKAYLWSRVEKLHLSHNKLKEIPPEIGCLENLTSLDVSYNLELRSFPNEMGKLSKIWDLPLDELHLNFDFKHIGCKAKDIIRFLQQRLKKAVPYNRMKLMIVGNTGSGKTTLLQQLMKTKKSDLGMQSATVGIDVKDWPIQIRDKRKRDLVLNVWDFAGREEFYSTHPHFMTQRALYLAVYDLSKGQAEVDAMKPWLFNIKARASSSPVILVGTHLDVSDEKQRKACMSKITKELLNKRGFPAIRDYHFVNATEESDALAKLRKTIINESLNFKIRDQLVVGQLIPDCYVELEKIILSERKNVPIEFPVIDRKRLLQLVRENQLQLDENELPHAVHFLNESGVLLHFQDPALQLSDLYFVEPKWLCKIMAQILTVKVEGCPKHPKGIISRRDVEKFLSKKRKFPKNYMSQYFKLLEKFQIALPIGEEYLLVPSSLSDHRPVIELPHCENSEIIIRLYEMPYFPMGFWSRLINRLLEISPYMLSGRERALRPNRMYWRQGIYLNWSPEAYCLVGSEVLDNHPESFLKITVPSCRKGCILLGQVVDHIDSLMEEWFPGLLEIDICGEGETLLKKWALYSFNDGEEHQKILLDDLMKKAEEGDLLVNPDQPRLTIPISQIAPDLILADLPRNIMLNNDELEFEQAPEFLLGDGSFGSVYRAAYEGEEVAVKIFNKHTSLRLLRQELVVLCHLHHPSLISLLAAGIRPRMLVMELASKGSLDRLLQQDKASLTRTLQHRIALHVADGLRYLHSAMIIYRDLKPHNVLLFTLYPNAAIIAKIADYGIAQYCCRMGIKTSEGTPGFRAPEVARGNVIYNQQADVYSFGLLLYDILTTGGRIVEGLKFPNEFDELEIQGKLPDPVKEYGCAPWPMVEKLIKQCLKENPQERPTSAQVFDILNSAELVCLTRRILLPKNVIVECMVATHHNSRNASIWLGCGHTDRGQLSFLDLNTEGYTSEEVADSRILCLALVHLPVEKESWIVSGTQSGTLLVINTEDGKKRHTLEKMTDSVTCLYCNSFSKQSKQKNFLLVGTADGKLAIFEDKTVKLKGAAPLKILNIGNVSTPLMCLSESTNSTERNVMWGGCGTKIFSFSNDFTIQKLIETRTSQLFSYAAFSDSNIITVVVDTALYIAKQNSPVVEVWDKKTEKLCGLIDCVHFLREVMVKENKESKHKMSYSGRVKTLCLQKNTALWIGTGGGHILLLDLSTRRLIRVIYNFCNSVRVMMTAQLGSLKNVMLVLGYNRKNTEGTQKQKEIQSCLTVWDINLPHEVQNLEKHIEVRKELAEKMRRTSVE"}, "RIPK2": {"biological_target": "RIPK2 (Homo sapiens, UniProt O43353)"}, "DYRK3": {"biological_target": "DYRK3 (Homo sapiens, UniProt O43781)", "sequence (O43781 whole entry)": "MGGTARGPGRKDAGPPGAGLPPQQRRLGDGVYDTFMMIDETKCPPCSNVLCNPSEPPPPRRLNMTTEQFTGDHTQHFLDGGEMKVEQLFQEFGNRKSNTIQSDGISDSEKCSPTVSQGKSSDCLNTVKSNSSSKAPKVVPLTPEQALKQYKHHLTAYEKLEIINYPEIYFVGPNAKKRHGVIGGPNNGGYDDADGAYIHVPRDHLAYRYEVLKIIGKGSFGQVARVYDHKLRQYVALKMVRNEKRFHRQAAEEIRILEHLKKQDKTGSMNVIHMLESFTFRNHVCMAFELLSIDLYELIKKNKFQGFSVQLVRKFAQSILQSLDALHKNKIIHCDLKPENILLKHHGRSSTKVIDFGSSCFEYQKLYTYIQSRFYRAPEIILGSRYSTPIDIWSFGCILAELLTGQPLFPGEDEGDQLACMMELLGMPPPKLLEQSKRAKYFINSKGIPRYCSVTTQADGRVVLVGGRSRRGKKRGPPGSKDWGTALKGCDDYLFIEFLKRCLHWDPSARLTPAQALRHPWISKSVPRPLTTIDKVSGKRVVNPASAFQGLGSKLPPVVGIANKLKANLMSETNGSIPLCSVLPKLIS"}, "CK1_alpha1": {"biological_target": "T2, CK1_alpha1 (Homo sapiens, UniProt P48729)", "T2 construct": "gene CSNK1A1"}, "Kit": {"biological_target": "Kit (Homo sapiens, UniProt P10721)"}, "Mink1": {"biological_target": "Mink1 (Homo sapiens, UniProt Q8N4C8)"}, "PLK1": {"biological_target": "PLK1 (Homo sapiens, UniProt P53350)"}, "NLK": {"biological_target": "NLK (Homo sapiens, UniProt Q9UBE8)", "sequence (Q9UBE8 whole entry)": "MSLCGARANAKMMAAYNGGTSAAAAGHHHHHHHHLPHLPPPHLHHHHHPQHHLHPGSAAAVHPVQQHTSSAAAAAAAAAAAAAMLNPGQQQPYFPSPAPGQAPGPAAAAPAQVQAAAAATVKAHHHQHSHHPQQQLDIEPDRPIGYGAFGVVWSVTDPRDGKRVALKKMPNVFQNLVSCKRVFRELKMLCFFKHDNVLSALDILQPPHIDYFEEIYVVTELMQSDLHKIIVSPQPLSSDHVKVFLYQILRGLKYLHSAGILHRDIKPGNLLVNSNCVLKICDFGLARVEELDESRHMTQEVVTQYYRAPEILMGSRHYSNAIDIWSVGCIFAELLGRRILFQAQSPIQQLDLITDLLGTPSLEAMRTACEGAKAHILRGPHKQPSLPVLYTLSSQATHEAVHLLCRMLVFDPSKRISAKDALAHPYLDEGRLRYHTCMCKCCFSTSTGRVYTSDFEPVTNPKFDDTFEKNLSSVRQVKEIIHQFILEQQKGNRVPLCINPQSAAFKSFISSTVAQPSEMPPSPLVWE"}, "EGFR(T790M,L858R)": {"biological_target": "EGFR(T790M,L858R) (Homo sapiens, UniProt P00533, L858R/T790M)"}, "BMPR1A": {"biological_target": "BMPR1A (Homo sapiens, UniProt P36894)"}, "EphB3": {"biological_target": "EphB3 (Homo sapiens, UniProt P54753)", "sequence (P54753 whole entry)": "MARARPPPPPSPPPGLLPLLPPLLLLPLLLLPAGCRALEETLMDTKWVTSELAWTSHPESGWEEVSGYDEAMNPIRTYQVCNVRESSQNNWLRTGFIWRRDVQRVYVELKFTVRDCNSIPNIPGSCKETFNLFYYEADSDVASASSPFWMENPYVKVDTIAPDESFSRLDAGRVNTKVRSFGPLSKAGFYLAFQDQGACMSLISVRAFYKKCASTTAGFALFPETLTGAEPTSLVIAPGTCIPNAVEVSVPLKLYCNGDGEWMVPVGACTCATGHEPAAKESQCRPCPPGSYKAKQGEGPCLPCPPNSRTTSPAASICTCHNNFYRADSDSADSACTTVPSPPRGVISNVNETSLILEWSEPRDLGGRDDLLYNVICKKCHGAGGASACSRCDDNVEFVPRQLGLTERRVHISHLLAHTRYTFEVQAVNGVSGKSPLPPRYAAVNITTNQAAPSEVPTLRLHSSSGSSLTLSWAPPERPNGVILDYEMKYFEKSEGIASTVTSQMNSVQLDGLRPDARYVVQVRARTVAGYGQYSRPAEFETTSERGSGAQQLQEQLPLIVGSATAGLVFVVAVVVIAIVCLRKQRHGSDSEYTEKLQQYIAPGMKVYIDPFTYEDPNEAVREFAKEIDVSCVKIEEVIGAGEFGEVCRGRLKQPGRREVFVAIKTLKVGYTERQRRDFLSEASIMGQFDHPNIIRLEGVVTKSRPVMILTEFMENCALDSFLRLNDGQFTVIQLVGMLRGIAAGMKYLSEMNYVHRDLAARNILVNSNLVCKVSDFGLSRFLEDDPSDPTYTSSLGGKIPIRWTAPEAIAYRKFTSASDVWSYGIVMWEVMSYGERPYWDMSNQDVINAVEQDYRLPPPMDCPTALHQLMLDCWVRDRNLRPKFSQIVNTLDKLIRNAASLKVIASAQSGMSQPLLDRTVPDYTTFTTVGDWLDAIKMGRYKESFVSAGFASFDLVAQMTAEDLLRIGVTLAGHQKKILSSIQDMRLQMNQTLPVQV"}, "CamKII_alpha": {"biological_target": "T3, CamKII_alpha (Homo sapiens, UniProt Q9UQM7)", "T3 construct": "gene CAMK2A"}, "DRAK1": {"biological_target": "T4, DRAK1 (Homo sapiens, UniProt Q9UEE5)", "T4 construct": "gene STK17A"}, "p38_delta": {"biological_target": "T5, p38_delta (Homo sapiens, UniProt O15264)", "T5 construct": "gene MAPK13", "T5 sequence (O15264 whole entry)": "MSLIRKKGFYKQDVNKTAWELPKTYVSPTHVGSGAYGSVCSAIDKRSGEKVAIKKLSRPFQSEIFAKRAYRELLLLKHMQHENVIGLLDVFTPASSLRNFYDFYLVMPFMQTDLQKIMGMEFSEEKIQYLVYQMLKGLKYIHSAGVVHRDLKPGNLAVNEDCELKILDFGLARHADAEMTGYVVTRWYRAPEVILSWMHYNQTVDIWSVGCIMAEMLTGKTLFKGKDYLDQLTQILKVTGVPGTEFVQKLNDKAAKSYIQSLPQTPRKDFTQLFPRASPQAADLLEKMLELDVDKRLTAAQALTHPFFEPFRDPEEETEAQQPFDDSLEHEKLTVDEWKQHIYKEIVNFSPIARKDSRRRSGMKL"}, "WNK2": {"biological_target": "WNK2 (Homo sapiens, UniProt Q9Y3S1)"}, "PKC_epsilon": {"biological_target": "T6, PKC_epsilon (Homo sapiens, UniProt Q02156)", "T6 construct": "gene PRKCE"}, "JAK3": {"biological_target": "JAK3 (Homo sapiens, UniProt P52333)"}, "CK1_gamma1": {"biological_target": "T7, CK1_gamma1 (Homo sapiens, UniProt Q9HCP0)", "T7 construct": "gene CSNK1G1"}, "Bmx": {"biological_target": "Bmx (Homo sapiens, UniProt P51813)"}, "MST4": {"biological_target": "T8, MST4 (Homo sapiens, UniProt Q9P289)", "T8 construct": "gene STK26"}, "PAK4": {"biological_target": "PAK4 (Homo sapiens, UniProt O96013)"}, "GRK2": {"biological_target": "GRK2 (Homo sapiens, UniProt P25098)"}},
  "data": [
    {"compound": "CCOC(=O)Nc1cccc2c(Oc3ncccc3-c3ccnc(N[C@H]4CCCNC4)n3)c(C)ccc12", "note": "[G-1749]", "values": [
      {"measurement": "inhibition at 1 µM", "setting": "SPHK1", "value": 14.5, "unit": "%"},
      {"measurement": "inhibition at 1 µM", "setting": "PI3K-A", "value": 10, "unit": "%"},
      {"measurement": "inhibition at 1 µM", "setting": "ERN1", "value": 99.5, "unit": "%"},
      {"measurement": "inhibition at 1 µM", "setting": "LRRK2", "value": -3.5, "unit": "%"},
      {"measurement": "inhibition at 1 µM", "setting": "RIPK2", "value": 13.5, "unit": "%"},
      {"measurement": "inhibition at 1 µM", "setting": "DYRK3", "value": 3.5, "unit": "%"},
      {"measurement": "inhibition at 1 µM", "setting": "CK1_alpha1", "value": -1.5, "unit": "%"},
      {"measurement": "inhibition at 1 µM", "setting": "Kit", "value": 0, "unit": "%"},
      {"measurement": "inhibition at 1 µM", "setting": "Mink1", "value": 25, "unit": "%"},
      {"measurement": "inhibition at 1 µM", "setting": "PLK1", "value": 5, "unit": "%"},
      {"measurement": "inhibition at 1 µM", "setting": "NLK", "value": 13, "unit": "%"},
      {"measurement": "inhibition at 1 µM", "setting": "EGFR(T790M,L858R)", "value": 2.5, "unit": "%"},
      {"measurement": "inhibition at 1 µM", "setting": "BMPR1A", "value": 0, "unit": "%"},
      {"measurement": "inhibition at 1 µM", "setting": "EphB3", "value": 3, "unit": "%"},
      {"measurement": "inhibition at 1 µM", "setting": "CamKII_alpha", "value": -17.5, "unit": "%"},
      {"measurement": "inhibition at 1 µM", "setting": "DRAK1", "value": 0, "unit": "%"},
      {"measurement": "inhibition at 1 µM", "setting": "p38_delta", "value": 11.5, "unit": "%"},
      {"measurement": "inhibition at 1 µM", "setting": "WNK2", "value": -1, "unit": "%"},
      {"measurement": "inhibition at 1 µM", "setting": "PKC_epsilon", "value": 14.5, "unit": "%"},
      {"measurement": "inhibition at 1 µM", "setting": "JAK3", "value": -15.5, "unit": "%"},
      {"measurement": "inhibition at 1 µM", "setting": "CK1_gamma1", "value": -1.5, "unit": "%"},
      {"measurement": "inhibition at 1 µM", "setting": "Bmx", "value": -4, "unit": "%"},
      {"measurement": "inhibition at 1 µM", "setting": "MST4", "value": -12.5, "unit": "%"},
      {"measurement": "inhibition at 1 µM", "setting": "PAK4", "value": 0, "unit": "%"},
      {"measurement": "inhibition at 1 µM", "setting": "GRK2", "value": 2, "unit": "%"}
    ]},
    {"compound": "CC#CC(=O)Nc1cccc2c(Oc3ncccc3-c3ccnc(N[C@H]4CCCNC4)n3)c(C)ccc12", "note": "[G-7658]", "values": [
      {"measurement": "inhibition at 1 µM", "setting": "SPHK1", "value": -5, "unit": "%"},
      {"measurement": "inhibition at 1 µM", "setting": "PI3K-A", "value": -18.5, "unit": "%"},
      {"measurement": "inhibition at 1 µM", "setting": "ERN1", "value": 106, "unit": "%"},
      {"measurement": "inhibition at 1 µM", "setting": "LRRK2", "value": 8.5, "unit": "%"},
      {"measurement": "inhibition at 1 µM", "setting": "RIPK2", "value": 27.5, "unit": "%"},
      {"measurement": "inhibition at 1 µM", "setting": "DYRK3", "value": 1, "unit": "%"},
      {"measurement": "inhibition at 1 µM", "setting": "CK1_alpha1", "value": -0.5, "unit": "%"},
      {"measurement": "inhibition at 1 µM", "setting": "Kit", "value": -0.5, "unit": "%"},
      {"measurement": "inhibition at 1 µM", "setting": "Mink1", "value": 4, "unit": "%"},
      {"measurement": "inhibition at 1 µM", "setting": "PLK1", "value": 6, "unit": "%"},
      {"measurement": "inhibition at 1 µM", "setting": "NLK", "value": 19, "unit": "%"},
      {"measurement": "inhibition at 1 µM", "setting": "EGFR(T790M,L858R)", "value": 4, "unit": "%"},
      {"measurement": "inhibition at 1 µM", "setting": "BMPR1A", "value": 2, "unit": "%"},
      {"measurement": "inhibition at 1 µM", "setting": "EphB3", "value": 4.5, "unit": "%"},
      {"measurement": "inhibition at 1 µM", "setting": "CamKII_alpha", "value": -16, "unit": "%"},
      {"measurement": "inhibition at 1 µM", "setting": "DRAK1", "value": -4, "unit": "%"},
      {"measurement": "inhibition at 1 µM", "setting": "p38_delta", "value": 13.5, "unit": "%"},
      {"measurement": "inhibition at 1 µM", "setting": "WNK2", "value": -2.5, "unit": "%"},
      {"measurement": "inhibition at 1 µM", "setting": "PKC_epsilon", "value": 9.5, "unit": "%"},
      {"measurement": "inhibition at 1 µM", "setting": "JAK3", "value": -15, "unit": "%"},
      {"measurement": "inhibition at 1 µM", "setting": "CK1_gamma1", "value": 9, "unit": "%"},
      {"measurement": "inhibition at 1 µM", "setting": "Bmx", "value": -4.5, "unit": "%"},
      {"measurement": "inhibition at 1 µM", "setting": "MST4", "value": -3.5, "unit": "%"},
      {"measurement": "inhibition at 1 µM", "setting": "PAK4", "value": 0, "unit": "%"},
      {"measurement": "inhibition at 1 µM", "setting": "GRK2", "value": 1, "unit": "%"}
    ]}
  ]
}
